Assay results taken from ChEMBL document CHEMBL4390673, “Identification of Novel Coumestan Derivatives as Polyketide Synthase 13 Inhibitors against Mycobacterium tuberculosis. Part II” (J Med Chem, 2019).
Converted amounts (≈) assume the structure as drawn.

Assays:
[1] = tested on: Polyketide synthase Pks13 (Mycobacterium tuberculosis (strain ATCC 25618 / H37Rv)), I6X8D2 [D1644G,N1640K]; test: Inhibition of Pks13 D1644G/N1640K double mutant thioesterase domain in multidrug-resistant Mycobacterium tuberculosis KZN494 assessed as reduction in bacterial growth by microplate alamar blue assay
[2] = tested on: Polyketide synthase Pks13 (Mycobacterium tuberculosis (strain ATCC 25618 / H37Rv)), I6X8D2 [D1644G,N1640K]; test: Inhibition of Pks13 D1644G/N1640K double mutant thioesterase domain in drug-susceptible Mycobacterium tuberculosis V4207 assessed as reduction in bacterial growth by microplate alamar blue assay
[3] = tested on: Polyketide synthase Pks13 (Mycobacterium tuberculosis (strain ATCC 25618 / H37Rv)), I6X8D2 [D1644G,N1640K]; test: Inhibition of Pks13 D1644G/N1640K double mutant thioesterase domain in Mycobacterium tuberculosis H37Rv assessed as reduction in bacterial growth by microplate alamar blue assay
[4] = tested on: Polyketide synthase Pks13 (Mycobacterium tuberculosis (strain ATCC 25618 / H37Rv)), I6X8D2 [D1644G,N1640K]; test: Inhibition of Pks13 D1644G/N1640K double mutant thioesterase domain in extensively drug-resistant Mycobacterium tuberculosis R506 assessed as reduction in bacterial growth by microplate alamar blue assay
[5] = tested on: Polyketide synthase Pks13 (Mycobacterium tuberculosis (strain ATCC 25618 / H37Rv)), I6X8D2 [D1644G,N1640K]; test: Inhibition of Pks13 D1644G/N1640K double mutant thioesterase domain in extensively drug-resistant Mycobacterium tuberculosis TF274 assessed as reduction in bacterial growth by microplate alamar blue assay
[6] = tested on: Polyketide synthase Pks13 (Mycobacterium tuberculosis (strain ATCC 25618 / H37Rv)), I6X8D2 [D1644G,N1640K]; test: Inhibition of Pks13 D1644G/N1640K double mutant thioesterase domain in multidrug-resistant Mycobacterium tuberculosis V2475 assessed as reduction in bacterial growth by microplate alamar blue assay

Compound	MIC=<90 [3] [µg/mL]	further results
NC[C@H]1O[C@H](O[C@H]2[C@H](O)[C@@H](O[C@H]3O[C@H](CO)[C@@H](O)[C@H](N)[C@H]3O)[C@H](N)C[C@@H]2N)[C@H](O)[C@@H](O)[C@@H]1O	2 (≈ 4.13 µM)	MIC=<90 [1]: 2 µg/mL (≈ 4.13 µM); MIC=<90 [2]: 2 µg/mL (≈ 4.13 µM); MIC=<90 [4]: > 128 µg/mL; MIC=<90 [5]: > 128 µg/mL; MIC=<90 [6]: 2 µg/mL (≈ 4.13 µM)
Cc1cc(O)c(CN2CCCCC2)c2c1oc1c3ccccc3oc(=O)c12	0.125 (≈ 0.344 µM)	
O=c1oc2ccccc2c2oc3ccc(O)c(CN4CCCC4)c3c12	0.5 (≈ 1.49 µM)	
O=c1oc2ccccc2c2oc3ccc(O)cc3c12	> 64	
CCOc1ccc2oc3c4ccccc4oc(=O)c3c2c1CN1CCCCC1=O	> 64	
O=c1oc2ccccc2c2oc3c(Br)cc(O)c(CN4CCCCC4)c3c12	2 (≈ 4.67 µM)	
COc1c(N2C[C@@H]3CCCN[C@@H]3C2)c(F)cc2c(=O)c(C(=O)O)cn(C3CC3)c12	0.0625 to 0.125 (≈ 0.156 to 0.311 µM)	
O=C1CCCN1Cc1c(O)ccc2oc3c4ccccc4oc(=O)c3c12	> 64	
CC(C)(C)c1cc(O)c(CN2CCCCC2)c2c1oc1c3ccccc3oc(=O)c12	0.0625 to 0.125 (≈ 0.154 to 0.308 µM)	
COc1ccc2oc3c4ccccc4oc(=O)c3c2c1CN1CCCC1=O	> 64	
O=c1oc2cc(O)ccc2c2oc3ccc(O)c(CN4CCCCC4)c3c12	0.0039 (≈ 0.0107 µM)	MIC=<90 [1]: 0.0039 µg/mL (≈ 0.0107 µM); MIC=<90 [2]: 0.0078 µg/mL (≈ 0.0213 µM); MIC=<90 [4]: 0.0078 µg/mL (≈ 0.0213 µM); MIC=<90 [5]: 0.0078 µg/mL (≈ 0.0213 µM); MIC=<90 [6]: 0.0156 µg/mL (≈ 0.0427 µM)
CC1CCCN(Cc2c(O)ccc3oc4c5ccccc5oc(=O)c4c23)C1 (stereo unspecified)	2 (≈ 5.5 µM)	
O=c1oc2ccccc2c2oc3c(Cl)cc(O)c(CN4CCCCC4)c3c12	2 (≈ 5.21 µM)	
O=c1oc2ccc(O)cc2c2oc3ccc(O)c(CN4CCCCC4)c3c12	0.5 (≈ 1.37 µM)	
O=C(NCC1CC1)c1c(O)ccc2oc3c4ccccc4oc(=O)c3c12	> 64	
CC1CCN(Cc2c(O)ccc3oc4c5ccccc5oc(=O)c4c23)CC1	0.5 (≈ 1.38 µM)	
CNC(=O)c1c(-c2ccc(O)cc2)oc2ccc(O)c(CN3CCCCC3)c12	0.0313 (≈ 0.0823 µM)	
CC1CCCCN1Cc1c(O)ccc2oc3c4ccccc4oc(=O)c3c12 (stereo unspecified)	1 (≈ 2.75 µM)	
C[C@H]1COc2c(N3CCN(C)CC3)c(F)cc3c(=O)c(C(=O)O)cn1c23	0.25 (≈ 0.692 µM)	MIC=<90 [2]: 0.125 µg/mL (≈ 0.346 µM); MIC=<90 [4]: 2 µg/mL (≈ 5.53 µM); MIC=<90 [5]: 1 µg/mL (≈ 2.77 µM)
COc1cc2oc3c4ccccc4oc(=O)c3c2c(CN2CCCCC2)c1O	2 (≈ 5.27 µM)	
O=c1oc2ccccc2c2oc3cc([N+](=O)[O-])c(O)c(CN4CCCCC4)c3c12	> 64	
NCC[C@H](O)C(=O)N[C@@H]1C[C@H](N)[C@@H](O[C@H]2O[C@H](CN)[C@@H](O)[C@H](O)[C@H]2O)[C@H](O)[C@H]1O[C@H]1O[C@H](CO)[C@@H](O)[C@H](N)[C@H]1O	1 (≈ 1.71 µM)	

Compound	MIC=<90 [3] [µg/mL]	further results
CC(C)(C)c1cc(O)c(CN2CCCCC2)c2c1oc1c3cc(O)ccc3oc(=O)c12	0.125 (≈ 0.297 µM)	
COCCOc1ccc2oc3c4ccccc4oc(=O)c3c2c1CN1CCCCC1=O	> 64	
O=c1oc2ccccc2c2oc3cc(O)c(O)c(CN4CCCCC4)c3c12	4 (≈ 10.9 µM)	
O=c1oc2cc(O)c(O)cc2c2oc3cc(O)c(O)c(CN4CCCCC4)c3c12	32 (≈ 80.5 µM)	
CC1COc2c(N3CCN(C)CC3)c(F)cc3c(=O)c(C(=O)O)cn1c23 (stereo unspecified)		MIC=<90 [1]: 0.5 µg/mL (≈ 1.38 µM); MIC=<90 [2]: 0.5 µg/mL (≈ 1.38 µM); MIC=<90 [4]: 4 µg/mL (≈ 11.1 µM); MIC=<90 [5]: 8 µg/mL (≈ 22.1 µM); MIC=<90 [6]: 0.5 µg/mL (≈ 1.38 µM)
O=c1oc2cc(O)ccc2c2oc3cc(O)c(O)c(CN4CCCCC4)c3c12	2 (≈ 5.24 µM)	
O=c1oc2ccccc2c2oc3cc(CN4CCCCC4)c(O)cc3c12	> 64	
CO[C@H]1/C=C/O[C@@]2(C)Oc3c(C)c(O)c4c(O)c(c(/C=N/N5CCN(C)CC5)c(O)c4c3C2=O)NC(=O)/C(C)=C\C=C\[C@H](C)[C@H](O)[C@@H](C)[C@@H](O)[C@@H](C)[C@H](OC(C)=O)[C@@H]1C	0.125 (≈ 0.152 µM)	MIC=<90 [1]: 128 µg/mL (≈ 156 µM); MIC=<90 [2]: 0.0625 µg/mL (≈ 0.0759 µM); MIC=<90 [4]: > 128 µg/mL; MIC=<90 [5]: > 128 µg/mL; MIC=<90 [6]: 4 µg/mL (≈ 4.86 µM)
O=c1oc2ccccc2c2oc3cc(Br)c(O)c(CN4CCCCC4)c3c12	> 64	
O=C(c1c(O)ccc2oc3c4ccccc4oc(=O)c3c12)N1CCCCC1	> 64	
O=c1oc2ccccc2c2oc3ccc(O)c(CN4CCCCC4)c3c12	0.125 to 0.25 (≈ 0.358 to 0.716 µM)	
COc1ccc2oc3c4ccccc4oc(=O)c3c2c1CN1CCCCC1=O	> 64	
CC(C)(C)c1cc(O)c(CN2CCCCC2)c2c1oc1c3ccc(O)cc3oc(=O)c12	0.0039 (≈ 0.00925 µM)	MIC=<90 [1]: 0.001 to 0.002 µg/mL (≈ 0.00237 to 0.00475 µM); MIC=<90 [2]: 0.0039 to 0.0078 µg/mL (≈ 0.00925 to 0.0185 µM); MIC=<90 [4]: 0.0039 µg/mL (≈ 0.00925 µM); MIC=<90 [5]: 0.0039 µg/mL (≈ 0.00925 µM); MIC=<90 [6]: 0.0156 µg/mL (≈ 0.037 µM)
CC[C@@H](CO)NCCN[C@@H](CC)CO	1 (≈ 4.89 µM)	
O=C1CCCCCN1Cc1c(O)ccc2oc3c4ccccc4oc(=O)c3c12	> 64	
NNC(=O)c1ccncc1	0.04 (≈ 0.292 µM)	MIC=<90 [1]: 16 µg/mL (≈ 117 µM); MIC=<90 [2]: 0.04 µg/mL (≈ 0.292 µM); MIC=<90 [4]: 8 µg/mL (≈ 58.3 µM); MIC=<90 [5]: 8 µg/mL (≈ 58.3 µM); MIC=<90 [6]: 16 µg/mL (≈ 117 µM)
O=C(c1cc2oc3c4ccccc4oc(=O)c3c2cc1O)N1CCCCC1	> 64	
COCCOc1ccc2oc3c4ccccc4oc(=O)c3c2c1CN1CCCC1=O	> 64	
COc1ccc2oc3c4ccccc4oc(=O)c3c2c1C(=O)N1CCCCC1	> 64	
O=C1CCCCN1Cc1c(O)ccc2oc3c4ccccc4oc(=O)c3c12	> 64	
CCOC(=O)c1c(-c2ccccc2)oc2ccc(O)c(CN3CCC(C)CC3)c12	1 (≈ 2.54 µM)	
C[C@@H]1NC(=O)[C@@H](N)CNC(=O)[C@H](C2CCNC(=N)N2)NC(=O)/C(=C/NC(N)=O)NC(=O)[C@H](CNC(=O)CC(N)CCCN)NC1=O.N=C1NCCC([C@@H]2NC(=O)/C(=C/NC(N)=O)NC(=O)[C@H](CNC(=O)CC(N)CCCN)NC(=O)[C@H](CO)NC(=O)[C@@H](N)CNC2=O)N1 (stereo partly specified)	1	
